Calls of active or inactive are those of the source. The rule behind the calls is not given here.
Experiments:
[1] = Metabolic stability in human liver microsomes assessed as half life; type: ADME, Microsome
Canis familiaris = organism: Canis familiaris; assay: (§1) Volume of distribution at steady state in dog; type: ADME, organism-based, Canis lupus familiaris; conditions: in vivo
[2] = Bioavailability in dog at 0.5 mg/kg, iv; type: ADME, organism-based, Canis lupus familiaris; conditions: in vivo
[3] = molecular target: Coagulation factor IX (Homo sapiens) (UniProt P00740); assay: Inhibition of human factor 9a
Sequence of Coagulation factor IX (Homo sapiens) (P00740 47-191 limits assumed): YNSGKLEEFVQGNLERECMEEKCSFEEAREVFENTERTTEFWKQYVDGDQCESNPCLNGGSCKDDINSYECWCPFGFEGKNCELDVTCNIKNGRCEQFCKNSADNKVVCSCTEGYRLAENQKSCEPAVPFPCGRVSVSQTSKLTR
Sequence of Coagulation factor IX (Homo sapiens) (P00740 227-461 limits assumed): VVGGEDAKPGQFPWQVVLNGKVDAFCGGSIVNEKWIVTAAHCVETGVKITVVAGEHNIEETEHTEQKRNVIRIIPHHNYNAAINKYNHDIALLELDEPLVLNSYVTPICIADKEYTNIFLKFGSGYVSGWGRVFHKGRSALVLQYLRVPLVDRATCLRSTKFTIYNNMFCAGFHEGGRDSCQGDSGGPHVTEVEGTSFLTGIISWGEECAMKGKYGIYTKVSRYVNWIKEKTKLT

[4] = molecular target: T1, Coagulation factor VII (Homo sapiens) (UniProt P08709); assay: Inhibition of human factor 7a
T1 sequence (whole entry): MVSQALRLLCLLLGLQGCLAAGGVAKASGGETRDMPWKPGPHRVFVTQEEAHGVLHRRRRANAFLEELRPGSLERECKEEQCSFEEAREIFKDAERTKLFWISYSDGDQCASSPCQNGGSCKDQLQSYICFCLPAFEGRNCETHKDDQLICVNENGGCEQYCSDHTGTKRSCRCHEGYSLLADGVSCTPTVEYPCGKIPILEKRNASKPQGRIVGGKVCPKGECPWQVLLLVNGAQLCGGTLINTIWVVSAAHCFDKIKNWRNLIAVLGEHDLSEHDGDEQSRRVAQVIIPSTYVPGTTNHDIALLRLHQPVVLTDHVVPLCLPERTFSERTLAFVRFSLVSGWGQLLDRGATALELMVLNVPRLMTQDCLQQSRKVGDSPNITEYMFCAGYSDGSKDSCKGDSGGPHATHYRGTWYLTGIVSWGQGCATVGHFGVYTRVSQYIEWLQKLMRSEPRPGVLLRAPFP

[5] = molecular target: Plasminogen (Homo sapiens) (UniProt P00747); assay: Inhibition of human plasmin
Sequence of Plasminogen (Homo sapiens) (P00747 97-580 limits assumed): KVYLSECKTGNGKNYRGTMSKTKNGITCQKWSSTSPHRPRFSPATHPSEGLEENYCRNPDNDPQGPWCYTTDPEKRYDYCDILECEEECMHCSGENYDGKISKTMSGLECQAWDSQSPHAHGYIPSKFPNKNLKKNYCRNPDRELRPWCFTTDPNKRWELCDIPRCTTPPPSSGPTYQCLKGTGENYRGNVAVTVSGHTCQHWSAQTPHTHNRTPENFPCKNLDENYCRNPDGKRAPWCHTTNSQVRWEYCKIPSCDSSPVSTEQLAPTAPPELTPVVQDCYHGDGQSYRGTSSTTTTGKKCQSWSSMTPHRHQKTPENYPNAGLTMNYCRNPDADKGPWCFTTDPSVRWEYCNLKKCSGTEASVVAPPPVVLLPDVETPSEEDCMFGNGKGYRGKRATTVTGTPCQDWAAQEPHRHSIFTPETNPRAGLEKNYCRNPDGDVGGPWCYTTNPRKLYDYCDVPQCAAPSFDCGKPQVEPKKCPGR
Sequence of Plasminogen (Homo sapiens) (P00747 581-810 limits assumed): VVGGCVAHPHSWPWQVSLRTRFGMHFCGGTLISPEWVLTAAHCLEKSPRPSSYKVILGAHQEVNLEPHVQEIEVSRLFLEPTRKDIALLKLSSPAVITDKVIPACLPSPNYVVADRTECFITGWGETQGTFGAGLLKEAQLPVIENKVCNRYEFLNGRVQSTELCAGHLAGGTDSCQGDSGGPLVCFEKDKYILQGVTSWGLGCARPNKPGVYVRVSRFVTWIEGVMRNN

Homo sapiens = organism: Homo sapiens; assay: Inhibition of human chymotrypsin
[6] = molecular target: Tissue-type plasminogen activator (Homo sapiens) (UniProt P00750); assay: Inhibition of human tPA
Sequence of Tissue-type plasminogen activator (Homo sapiens) (P00750 36-562 limits assumed): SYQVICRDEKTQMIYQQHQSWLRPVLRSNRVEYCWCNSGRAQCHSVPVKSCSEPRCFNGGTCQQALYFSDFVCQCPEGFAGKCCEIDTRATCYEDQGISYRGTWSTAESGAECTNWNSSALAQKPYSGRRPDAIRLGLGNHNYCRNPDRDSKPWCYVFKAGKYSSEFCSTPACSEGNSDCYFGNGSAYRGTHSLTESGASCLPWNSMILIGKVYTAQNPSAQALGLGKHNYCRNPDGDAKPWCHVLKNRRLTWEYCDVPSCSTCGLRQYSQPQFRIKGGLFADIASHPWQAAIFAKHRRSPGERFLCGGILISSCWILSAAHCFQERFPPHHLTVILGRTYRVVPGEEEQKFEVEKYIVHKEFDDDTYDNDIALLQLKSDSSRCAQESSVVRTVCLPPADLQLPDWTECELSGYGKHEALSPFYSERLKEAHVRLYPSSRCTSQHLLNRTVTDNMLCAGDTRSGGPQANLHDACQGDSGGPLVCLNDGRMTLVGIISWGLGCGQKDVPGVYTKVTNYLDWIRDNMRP

[7] = molecular target: Plasma kallikrein (Homo sapiens) (UniProt P03952); assay: Inhibition of human plasma kallikrein; type: cell-free
Sequence of Plasma kallikrein (Homo sapiens) (P03952 20-390 limits assumed): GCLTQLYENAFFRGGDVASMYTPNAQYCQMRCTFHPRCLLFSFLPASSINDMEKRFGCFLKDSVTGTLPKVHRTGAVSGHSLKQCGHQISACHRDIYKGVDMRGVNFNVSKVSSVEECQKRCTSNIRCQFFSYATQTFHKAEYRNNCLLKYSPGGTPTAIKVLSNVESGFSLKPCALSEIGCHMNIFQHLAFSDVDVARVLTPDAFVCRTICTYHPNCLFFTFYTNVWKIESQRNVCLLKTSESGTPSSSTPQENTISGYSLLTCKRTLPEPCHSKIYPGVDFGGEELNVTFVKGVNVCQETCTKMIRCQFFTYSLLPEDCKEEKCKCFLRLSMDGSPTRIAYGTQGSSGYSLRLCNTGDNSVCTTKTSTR
Sequence of Plasma kallikrein (Homo sapiens) (P03952 391-638 limits assumed): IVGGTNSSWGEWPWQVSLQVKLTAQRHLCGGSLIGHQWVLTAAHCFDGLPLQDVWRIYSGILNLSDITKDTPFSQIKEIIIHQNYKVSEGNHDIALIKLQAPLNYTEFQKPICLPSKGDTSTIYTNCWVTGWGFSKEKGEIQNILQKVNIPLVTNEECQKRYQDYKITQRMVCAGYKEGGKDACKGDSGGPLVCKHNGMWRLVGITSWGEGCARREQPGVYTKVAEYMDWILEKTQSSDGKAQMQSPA

[8] = molecular target: Vitamin K-dependent protein C (Homo sapiens) (UniProt P04070); assay: Inhibition of human activated protein C
Sequence of Vitamin K-dependent protein C (Homo sapiens) (P04070 43-197 limits assumed): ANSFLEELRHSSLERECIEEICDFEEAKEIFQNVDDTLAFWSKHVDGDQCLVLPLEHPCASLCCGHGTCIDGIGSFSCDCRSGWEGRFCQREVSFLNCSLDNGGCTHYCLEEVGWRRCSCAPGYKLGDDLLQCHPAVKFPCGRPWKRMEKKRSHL
Sequence of Vitamin K-dependent protein C (Homo sapiens) (P04070 212-461 limits assumed): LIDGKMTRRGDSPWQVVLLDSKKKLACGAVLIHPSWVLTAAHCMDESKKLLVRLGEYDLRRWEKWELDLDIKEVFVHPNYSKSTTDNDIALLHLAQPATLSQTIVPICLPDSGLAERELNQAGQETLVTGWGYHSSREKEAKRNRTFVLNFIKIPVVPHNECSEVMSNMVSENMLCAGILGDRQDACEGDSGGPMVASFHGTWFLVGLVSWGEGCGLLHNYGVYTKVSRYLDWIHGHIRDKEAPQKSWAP

[9] = Clearance in dog at 0.5 mg/kg, iv; type: ADME, organism-based, Canis lupus familiaris; set-up: dose 0.5 mg/kg, route intravenous; conditions: in vivo
[10] = as §1; type: ADME, organism-based, Canis lupus familiaris; conditions: in vivo, read-out: Vdss
[11] = Half life in dog at 0.2 mg/kg, po; type: ADME, organism-based, Canis lupus familiaris; set-up: dose 0.2 mg/kg, route oral; conditions: in vivo
Coagulation factor X = Coagulation factor X (Homo sapiens, UniProt P00742); assay: Inhibition of human factor 10a
Sequence of Coagulation factor X (P00742 41-179 limits assumed): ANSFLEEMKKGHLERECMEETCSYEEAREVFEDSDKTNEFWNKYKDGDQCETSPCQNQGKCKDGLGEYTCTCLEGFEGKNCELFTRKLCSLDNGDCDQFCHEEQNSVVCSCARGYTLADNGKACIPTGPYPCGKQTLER
Sequence of Coagulation factor X (P00742 235-488 limits assumed): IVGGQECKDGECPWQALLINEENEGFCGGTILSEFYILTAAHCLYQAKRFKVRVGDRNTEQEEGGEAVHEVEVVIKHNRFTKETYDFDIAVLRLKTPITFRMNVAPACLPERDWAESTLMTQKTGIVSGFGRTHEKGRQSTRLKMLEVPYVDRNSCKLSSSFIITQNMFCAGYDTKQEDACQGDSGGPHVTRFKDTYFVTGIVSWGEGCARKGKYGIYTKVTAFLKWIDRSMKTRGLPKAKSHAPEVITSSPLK

Trypsin (Homo sapiens) = Trypsin (Homo sapiens) (UniProt P07477+P07478+P35030); assay: Inhibition of human trypsin; type: protein assay

half-life [1] [h]	Vdss (Canis familiaris) [L/kg]	bioavailability [2] [%]	Activity [3]	Activity [4]	Activity [5]	Activity (Homo sapiens)	Activity [6]	Activity [7]	Activity [8]	clearance [9] [mL/min/kg]	Vd [10] [L/kg]	half-life [11] [h]	Ki (Coagulation factor X) [nM]	Activity (Trypsin (Homo sapiens))	SMILES
0.6	5.3	84	–	–	–	–	–	–	–	–	–	–	–	–	CN(C)Cc1nccn1-c1ccc(NC(=O)c2cc(C(F)(F)F)nn2-c2ccc3onc(N)c3c2)c(F)c1 [RAZAXABAN]
1.83	–	53	inactive	inactive	inactive	inactive	inactive	inactive	inactive	20	15	12	–	–	COc1ccc(-n2nc(C(F)(F)F)c3c2C(=O)N(c2ccc(C4(CN(C)C)CC4)cc2)CC3)cc1
–	–	–	inactive	inactive	inactive	inactive	inactive	inactive	inactive	–	–	–	0.054	inactive	COc1ccc(-n2nc(C(F)(F)F)c3c2C(=O)N(c2ccc(C4(CNc5nccs5)CC4)cc2)CC3)cc1
–	–	–	inactive	inactive	inactive	inactive	inactive	inactive	inactive	–	–	–	0.57	inactive	COc1ccc(-n2nc(C(F)(F)F)c3c2C(=O)N(c2ccc(C4(CN)CC4)cc2)CC3)cc1

From ChEMBL document CHEMBL1157522 (Bioorg Med Chem Lett, 2008)
